Laboratory results published in patent US12083124B2 (Incyte Corporation, priority 2019, dated 2024).
Read-outs that look alike come from different tables or passages of the source.

Key:
[1] = target: wild-type un-phosphorylated FGFR4 (Homo sapiens, UniProt P22455); assay: FGFR Enzymatic Assay (FRET peptide phosphorylation), FGFR4
[2] = target: wild-type un-phosphorylated FGFR2 (Homo sapiens, UniProt P21802); assay: FGFR Enzymatic Assay (FRET peptide phosphorylation), FGFR2
[3] = target: wild-type un-phosphorylated FGFR3 (Homo sapiens, UniProt P22607); assay: FGFR Enzymatic Assay (FRET peptide phosphorylation), FGFR3
wild-type un-phosphorylated FGFR3, sequence (P22607 23-806): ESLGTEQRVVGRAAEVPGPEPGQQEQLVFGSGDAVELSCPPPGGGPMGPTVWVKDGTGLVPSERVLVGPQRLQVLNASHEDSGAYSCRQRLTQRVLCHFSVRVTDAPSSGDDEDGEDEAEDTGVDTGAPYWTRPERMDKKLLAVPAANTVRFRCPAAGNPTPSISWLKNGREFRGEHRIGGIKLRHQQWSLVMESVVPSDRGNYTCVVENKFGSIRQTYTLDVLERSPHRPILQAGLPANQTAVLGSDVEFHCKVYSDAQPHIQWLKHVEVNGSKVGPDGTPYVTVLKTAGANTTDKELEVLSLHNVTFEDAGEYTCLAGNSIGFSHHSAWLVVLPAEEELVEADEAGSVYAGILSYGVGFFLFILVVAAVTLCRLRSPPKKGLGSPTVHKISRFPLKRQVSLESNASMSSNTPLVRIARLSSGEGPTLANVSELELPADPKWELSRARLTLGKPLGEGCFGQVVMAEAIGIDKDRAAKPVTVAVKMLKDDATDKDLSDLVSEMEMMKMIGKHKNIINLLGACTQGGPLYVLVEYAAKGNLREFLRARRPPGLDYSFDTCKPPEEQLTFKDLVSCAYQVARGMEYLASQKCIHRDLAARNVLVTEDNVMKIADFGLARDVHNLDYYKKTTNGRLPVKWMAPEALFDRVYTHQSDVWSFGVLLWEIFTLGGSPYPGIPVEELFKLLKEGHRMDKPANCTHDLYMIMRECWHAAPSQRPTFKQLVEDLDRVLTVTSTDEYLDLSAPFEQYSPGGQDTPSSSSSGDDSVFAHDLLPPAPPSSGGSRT

[4] = target: wild-type un-phosphorylated FGFR1 (Homo sapiens, UniProt P11362); assay: FGFR Enzymatic Assay (FRET peptide phosphorylation), FGFR1; details: pre-incubated for 4 hours
wild-type un-phosphorylated FGFR1, sequence (P11362 22-822): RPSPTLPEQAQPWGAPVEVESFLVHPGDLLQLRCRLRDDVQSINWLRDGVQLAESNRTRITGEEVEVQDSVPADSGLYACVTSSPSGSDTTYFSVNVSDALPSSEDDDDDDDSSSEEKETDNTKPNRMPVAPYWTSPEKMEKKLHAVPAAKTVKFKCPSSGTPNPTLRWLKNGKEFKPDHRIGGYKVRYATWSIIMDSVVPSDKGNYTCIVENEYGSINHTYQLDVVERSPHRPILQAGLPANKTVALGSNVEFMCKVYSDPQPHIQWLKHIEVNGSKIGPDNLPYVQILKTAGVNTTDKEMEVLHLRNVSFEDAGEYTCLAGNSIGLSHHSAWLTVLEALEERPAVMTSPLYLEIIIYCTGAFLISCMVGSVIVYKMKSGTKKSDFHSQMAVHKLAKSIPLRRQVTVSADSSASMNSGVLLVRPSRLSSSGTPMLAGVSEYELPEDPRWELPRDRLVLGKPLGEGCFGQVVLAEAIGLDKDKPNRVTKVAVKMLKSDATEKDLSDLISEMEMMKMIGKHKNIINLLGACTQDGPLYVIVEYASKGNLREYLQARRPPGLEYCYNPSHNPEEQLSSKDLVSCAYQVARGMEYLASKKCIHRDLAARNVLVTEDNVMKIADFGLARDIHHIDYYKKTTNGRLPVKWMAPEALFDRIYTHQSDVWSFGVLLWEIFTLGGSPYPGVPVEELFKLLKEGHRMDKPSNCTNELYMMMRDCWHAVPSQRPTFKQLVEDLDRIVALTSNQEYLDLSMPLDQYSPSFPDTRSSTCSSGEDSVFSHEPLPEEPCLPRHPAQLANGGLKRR
Method: The inhibitor potency of the exemplified compounds was determined in an enzyme discontinuous assay that measures peptide phosphorylation using FRET measurements to detect product formation. Inhibitors were serially diluted in DMSO and a volume of 0.2 μL was transferred to the wells of a 384-well plate. […] Appropriate controls (enzyme blank and enzyme with no inhibitor) were included on the plate. […] The 10 μL/well reaction concentration of the peptide substrate was 500 nM whereas the ATP concentration was maintained near or below the ATP Km. The ATP Km values were pre-determined in a separate series of experiments. The reaction plate was incubated at 25° C. for 1 hr and the reactions were ended with the addition of 5 μL/well of quench solution (50 mM Tris, 150 mM NaCl, 0.5 mg/mL BSA, pH 7.8; 45 mM EDTA, 600 nM staurosporin, with Perkin Elmer Lance Reagents at 3.75 nM Eu-antibody PY20 and 180 nM APC-Streptavidin). The plate was allowed to equilibrate for ˜10 minutes at ambient temperature before scanning on a PheraStar plate reader (BMG Labtech) instrument.
Either GraphPad prism or XLfit was used to analyze the data. The IC50 values were derived by fitting the data to a four parameter logistic equation producing a sigmoidal dose-response curve with a variable Hill coefficient. Prism equation: Y=Bottom+(Top-Bottom)/(1+10^((Log IC50-X)*Hill slope)); XLfit equation: Y=(A+((B−A)/(1+((X/C)^D)))) where X is the logarithm of inhibitor concentration and Y is the response.
GraphPad prism3 was used to analyze the data. The IC50 values were derived by fitting the data to the equation for a sigmoidal dose-response with a variable slope. Y=Bottom+(Top-Bottom)/(1+10^((Log IC50-X)*Hill Slope)) where X is the logarithm of concentration and Y is the response.
The data in Table 1 was measured in wild-type un-phosphorylated FGFR1, FGFR2, FGFR3, and FGFR4 proteins.

[5] = read-out: FGFR4, wild-type un-phosphorylated FGFR4, pre-incubated for 4 hours
[6] = read-out: FGFR1, wild-type un-phosphorylated FGFR1
[7] = read-out: FGFR2, wild-type un-phosphorylated FGFR2, pre-incubated for 4 hours
[8] = FGFR1, wild-type un-phosphorylated FGFR1

wild-type un-phosphorylated FGFR4, sequence (P22455 22-802): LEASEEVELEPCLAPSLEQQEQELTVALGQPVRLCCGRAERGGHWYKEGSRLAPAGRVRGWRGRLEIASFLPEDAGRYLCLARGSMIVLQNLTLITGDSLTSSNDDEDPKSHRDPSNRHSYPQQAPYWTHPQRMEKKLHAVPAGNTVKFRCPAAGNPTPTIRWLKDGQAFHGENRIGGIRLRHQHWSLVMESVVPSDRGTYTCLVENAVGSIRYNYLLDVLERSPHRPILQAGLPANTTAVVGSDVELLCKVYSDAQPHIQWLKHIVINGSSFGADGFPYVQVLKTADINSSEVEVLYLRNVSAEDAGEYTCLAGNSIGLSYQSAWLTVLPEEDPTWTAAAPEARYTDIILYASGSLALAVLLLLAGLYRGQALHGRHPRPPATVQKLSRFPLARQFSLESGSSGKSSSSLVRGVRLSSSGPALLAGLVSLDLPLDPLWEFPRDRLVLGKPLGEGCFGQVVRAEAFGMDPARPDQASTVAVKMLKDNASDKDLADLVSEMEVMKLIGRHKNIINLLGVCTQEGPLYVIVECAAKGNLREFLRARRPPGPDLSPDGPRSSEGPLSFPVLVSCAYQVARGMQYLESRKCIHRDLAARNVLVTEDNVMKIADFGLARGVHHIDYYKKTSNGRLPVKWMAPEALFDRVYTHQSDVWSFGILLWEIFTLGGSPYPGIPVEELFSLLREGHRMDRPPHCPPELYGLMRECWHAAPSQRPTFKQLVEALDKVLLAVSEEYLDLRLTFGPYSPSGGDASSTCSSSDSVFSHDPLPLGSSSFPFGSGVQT
wild-type un-phosphorylated FGFR2, sequence (P21802 22-821): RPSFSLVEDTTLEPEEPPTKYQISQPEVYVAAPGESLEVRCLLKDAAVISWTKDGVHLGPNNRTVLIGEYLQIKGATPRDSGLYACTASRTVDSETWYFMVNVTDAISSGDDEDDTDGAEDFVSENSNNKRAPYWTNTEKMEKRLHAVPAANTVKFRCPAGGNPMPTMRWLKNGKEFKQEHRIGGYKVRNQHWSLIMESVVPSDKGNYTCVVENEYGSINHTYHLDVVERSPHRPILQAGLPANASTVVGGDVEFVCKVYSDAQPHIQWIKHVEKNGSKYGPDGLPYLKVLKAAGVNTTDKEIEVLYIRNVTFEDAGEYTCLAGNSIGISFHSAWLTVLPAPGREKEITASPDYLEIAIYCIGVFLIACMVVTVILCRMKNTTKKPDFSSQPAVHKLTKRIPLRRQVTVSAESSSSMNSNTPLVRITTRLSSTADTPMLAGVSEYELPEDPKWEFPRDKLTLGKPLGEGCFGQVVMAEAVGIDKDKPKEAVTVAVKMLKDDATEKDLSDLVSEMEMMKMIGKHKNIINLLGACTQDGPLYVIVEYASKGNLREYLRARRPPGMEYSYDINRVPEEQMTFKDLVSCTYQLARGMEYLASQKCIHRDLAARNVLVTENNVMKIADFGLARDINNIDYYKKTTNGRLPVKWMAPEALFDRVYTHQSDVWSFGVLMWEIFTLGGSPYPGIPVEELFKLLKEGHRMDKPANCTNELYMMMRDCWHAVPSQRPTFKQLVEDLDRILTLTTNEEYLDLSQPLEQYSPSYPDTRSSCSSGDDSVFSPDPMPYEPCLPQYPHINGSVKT

Compound	IC50 [1, 5]	IC50 [2]	IC50 [3]	IC50 [4, 6]	IC50 [1]	IC50 [2, 7]	IC50 [4, 8]
COc1cc2[nH]nc(-c3cnn(C4CN(C(C)=O)C4)c3)c2nc1-c1cccc2c1CCC2 [Example 22, 1-(3-(4-(5-(2,3-Dihydro-1H-inden-4-yl)-6-methoxy-1H-pyrazolo[4,3-b]pyridin-3-yl)-1H-pyrazol-1-yl)azetidin-1-yl)ethan-1-one]		< 6 nM	< 6 nM		40 to 100 nM		40 to 100 nM
COc1cc2[nH]nc(-c3cnn(C4CN(S(C)(=O)=O)C4)c3)c2nc1-c1cccc2c1CCC2 [Example 23, 5-(2,3-Dihydro-1H-inden-4-yl)-6-methoxy-3-(1-(1-(methylsulfonyl)azetidin-3-yl)-1H-pyrazol-4-yl)-1H-pyrazolo[4,3-b]pyridine]		< 6 nM	< 6 nM		> 100 nM		> 100 nM
COc1cc2[nH]nc(-c3cnn(C4CN(C(=O)N(C)C)C4)c3)c2nc1-c1cccc2c1CCC2 [Example 24, 3-(4-(5-(2,3-Dihydro-1H-inden-4-yl)-6-methoxy-1H-pyrazolo[4,3-b]pyridin-3-yl)-1H-pyrazol-1-yl)-N,N-dimethylazetidine-1-carboxamide]	6 to 40 nM	< 6 nM	< 6 nM	6 to 40 nM			
COc1cc2[nH]nc(-c3cnn(C4CN(C(=O)C5CC5)C4)c3)c2nc1-c1cccc2c1CCC2 [Example 25, Cyclopropyl(3-(4-(5-(2,3-dihydro-1H-inden-4-yl)-6-methoxy-1H-pyrazolo[4,3-b]pyridin-3-yl)-1H-pyrazol-1-yl)azetidin-1-yl)methanone]		< 6 nM	< 6 nM	6 to 40 nM	40 to 100 nM		
COc1cc2[nH]nc(-c3cnn(CCN4CCOCC4)c3)c2nc1-c1cccc2c1CCC2 [Example 28, 4-(2-(4-(5-(2,3-Dihydro-1H-inden-4-yl)-6-methoxy-1H-pyrazolo[4,3-b]pyridin-3-yl)-1H-pyrazol-1-yl)ethyl)morpholine]		< 6 nM	< 6 nM		> 100 nM		40 to 100 nM
COc1cc2[nH]nc(-c3cnn(C4CC4)c3)c2nc1-c1cccc2c1CCC2 [Example 29, 3-(1-Cyclopropyl-1H-pyrazol-4-yl)-5-(2,3-dihydro-1H-inden-4-yl)-6-methoxy-1H-pyrazolo[4,3-b]pyridine]		< 6 nM	< 6 nM		40 to 100 nM		40 to 100 nM
COc1cc2[nH]nc(-c3cnn(CCC#N)c3)c2nc1-c1cccc2c1CCC2 [Example 30, 3-(4-(5-(2,3-Dihydro-1H-inden-4-yl)-6-methoxy-1H-pyrazolo[4,3-b]pyridin-3-yl)-1H-pyrazol-1-yl)propanenitrile]			< 6 nM		40 to 100 nM	6 to 40 nM	> 100 nM
COc1cc2[nH]nc(-c3cnn(CCO)c3)c2nc1-c1cccc2c1CCC2 [Example 31, 2-(4-(5-(2,3-Dihydro-1H-inden-4-yl)-6-methoxy-1H-pyrazolo[4,3-b]pyridin-3-yl)-1H-pyrazol-1-yl)ethan-1-ol]		< 6 nM	< 6 nM		40 to 100 nM		40 to 100 nM

Next, values leading:

IC50 [1, 5]	IC50 [2]	IC50 [3]	IC50 [4, 6]	IC50 [1]	IC50 [2, 7]	IC50 [4, 8]	Compound
6 to 40 nM	< 6 nM	< 6 nM	6 to 40 nM				COc1cc2[nH]nc(-c3ccc(N4CCN(C)CC4)nc3)c2nc1-c1cccc2c1CCC2C#N (single isomer, unassigned) [Example 186, 4-(6-Methoxy-3-(6-(4-methylpiperazin-1-yl)pyridin-3-yl)-1H-pyrazolo[4,3-b]pyridin-5-yl)-2,3-dihydro-1H-indene-1-carbonitrile]
		< 6 nM		> 100 nM	6 to 40 nM	> 100 nM	COc1cc2[nH]nc(-c3cnn(C)c3)c2nc1-c1cccc(C)c1C [Example 1, 5-(2,3-Dimethylphenyl)-6-methoxy-3-(1-methyl-1H-pyrazol-4-yl)-1H-pyrazolo[4,3-b]pyridine]
	< 6 nM	< 6 nM		40 to 100 nM		40 to 100 nM	COc1cc2[nH]nc(-c3cnn(C)c3)c2nc1-c1cccc2c1CCC2 [Example 2, 5-(2,3-Dihydro-1H-inden-4-yl)-6-methoxy-3-(1-methyl-1H-pyrazol-4-yl)-1H-pyrazolo[4,3-b]pyridine]
		< 6 nM		> 100 nM	6 to 40 nM	> 100 nM	COc1cc2[nH]nc(-c3cnn(C)c3)c2nc1-c1cccc2c1OCC2 [Example 4, 5-(2,3-Dihydrobenzofuran-7-yl)-6-methoxy-3-(1-methyl-1H-pyrazol-4-yl)-1H-pyrazolo[4,3-b]pyridine]
		< 6 nM		> 100 nM	6 to 40 nM	> 100 nM	COc1cc2[nH]nc(-c3cnn(C)c3)c2nc1-c1cccc(CC#N)c1C [Example 5, 2-(3-(6-Methoxy-3-(1-methyl-1H-pyrazol-4-yl)-1H-pyrazolo[4,3-b]pyridin-5-yl)-2-methylphenyl)acetonitrile]
	< 6 nM	< 6 nM		> 100 nM		40 to 100 nM	COc1cc2[nH]nc(-c3cnn(C4CC(C#N)C4)c3)c2nc1-c1cccc2c1CCC2 (stereo not shown) [Example 16, 3-(4-(5-(2,3-Dihydro-1H-inden-4-yl)-6-methoxy-1H-pyrazolo[4,3-b]pyridin-3-yl)-1H-pyrazol-1-yl)cyclobutanecarbonitrile]
	< 6 nM	< 6 nM		> 100 nM		40 to 100 nM	COc1cc2[nH]nc(-c3cnn(C4CN(C)C4)c3)c2nc1-c1cccc2c1CCC2 [Example 17, 5-(2,3-Dihydro-1H-inden-4-yl)-6-methoxy-3-(1-(1-methylazetidin-3-yl)-1H-pyrazol-4-yl)-1H-pyrazolo[4,3-b]pyridine]
	< 6 nM	< 6 nM		> 100 nM		40 to 100 nM	CCN1CC(n2cc(-c3n[nH]c4cc(OC)c(-c5cccc6c5CCC6)nc34)cn2)C1 [Example 18, 5-(2,3-Dihydro-1H-inden-4-yl)-3-(1-(1-ethylazetidin-3-yl)-1H-pyrazol-4-yl)-6-methoxy-1H-pyrazolo[4,3-b]pyridine]
	< 6 nM	< 6 nM		> 100 nM		40 to 100 nM	COc1cc2[nH]nc(-c3cnn(C4CCN(C(=O)N(C)C)CC4)c3)c2nc1-c1cccc2c1CCC2 [Example 19, 4-(4-(5-(2,3-Dihydro-1H-inden-4-yl)-6-methoxy-1H-pyrazolo[4,3-b]pyridin-3-yl)-1H-pyrazol-1-yl)-N,N-dimethylpiperidine-1-carboxamide]
	< 6 nM	< 6 nM		> 100 nM		40 to 100 nM	COC(=O)N1CCC(n2cc(-c3n[nH]c4cc(OC)c(-c5cccc6c5CCC6)nc34)cn2)CC1 [Example 20, Methyl 4-(4-(5-(2,3-dihydro-1H-inden-4-yl)-6-methoxy-1H-pyrazolo[4,3-b]pyridin-3-yl)-1H-pyrazol-1-yl)piperidine-1-carboxylate]
	< 6 nM	< 6 nM		40 to 100 nM		40 to 100 nM	COC(=O)N1CC(n2cc(-c3n[nH]c4cc(OC)c(-c5cccc6c5CCC6)nc34)cn2)C1 [Example 21, Methyl 3-(4-(5-(2,3-dihydro-1H-inden-4-yl)-6-methoxy-1H-pyrazolo[4,3-b]pyridin-3-yl)-1H-pyrazol-1-yl)azetidine-1-carboxylate]
